Key:
[1] = Single dose PK study in non-human primates (plasma concentration); type: in vivo; settings: cynomolgus monkeys
Description: Cynomolgus monkeys (n=2, 1 male and 1 female), were administered a single intravenous dose of Conjugate 1 at 10, 50 and 100 μg/kg. IL-15 was administered as a single intravenous dose at 50 μg/kg as a control. Plasma concentration of drug was determined at the indicated time points post injection (0.03, 0.25, 1, 4, 12, 24, 48, 72, 96, 120, 144, 168 hours).

[2] = test system: NK cells, CD8 T cells, CD4 T cells; assay: In vivo PD study in mice: lymphocyte cell numbers, proliferation and activation; design: species or system Balb/c mice
Text: NK cells and their proliferation were defined using CD45+CD3-CD49b+ and CD45+CD3-CD49b+Ki67+ marker combinations. Following dosing, blood samples were acquired on the Fortessa flow cytometer running FACS DIVA software. Flowjo software was used for analysis and NK cell absolute values and Ki67% positivity within NK cells were plotted using Prism.
In mouse, four different maturation states of NK cells are defined by CD27 and CD11b expression. Once NK marker (CD49b+), natural activating NK receptor (NKp46+) and IL-15/IL-2RB (CD122+) triple positive cells were identified, immature (CD11b−CD27−), early (CD11b−CD27+), high effector (CD11b+CD27+) and terminal effector (CD11b+CD27−) NK cells were quantified by flow cytometry.
NK cells in various maturation states were quantified in mice receiving a single dose, or after the third dose of a q7dx3 schedule, of Conjugate 1 at 0.01, 0.03, 0.1, 0.3, 1.0, and 1.5 mg/kg as described above. Using flow cytometry, the NK population of interest was identified by CD49b, NKp46 and CD122 positivity. CD11b and CD27 were then used to further differentiate the NK population in immature (CD11b-CD27−), early NK (CD11b−CD27+), high effector (CD11b+CD27+) and terminal effector (CD11b+CD27−) subpopulations. Peripheral blood was run on the Fortessa flow cytometer and absolute values for each population were determined using counting beads during sample acquisition using BD FACS DIVA software. Flow cytometric analysis was conducted using Flowjo software and data plotted in Prism.
The surface expression of NKG2D was conducted using flow cytometric analysis of anti-NKG2D signal, expressed as mean fluorescence intensity (MFI) in NK cells. Similarly, the level of intracellular granzyme B was conducted using flow cytometry-based detection of anti-Granzyme B signal, also expressed as MFI in NK cells. Following detection of NKG2D and granzyme B signal using the Fortessa flow cytometer and FACS Diva software, analysis was conducted using Flowjo software. MFI values were plotted using Prism. […] Dose-dependent increases in both NK activation markers was observed following a single dose of Conjugate 1.
In mouse, CD8 T cells were defined as CD45+CD3+CD4−CD8+. Blood and spleen from mice were subject to immunophenotyping using the Fortessa flow cytometer and with analysis using Flowjo software. Absolute CD8 cell counts were plotted in Prism as shown in FIG. 14 (blood) and FIG. 24 (spleen). FIG. 14 and FIG. 24 illustrate the ability of Conjugate 1 to induce proliferation and a sustained increase in numbers of CD8 T-cells following a single i.v. administration in mice at each of the dosage amounts described above. The impact is most notable for the medium (0.1mg/kg, 0.3 mg/kg) and high (1.0 mg/kg, 1.5 mg/kg) dosage amounts.
In mouse, CD8 effector memory (Tem) and CD8 central memory (TCM) T cells were identified as CD45+CD3+CD4−CD8+CD44+CD62− and CD45+CD3+CD4−CD8+CD44+CD62L+. Proliferation of these memory populations was conducted using Ki-67 positivity. Following a single dose of Conjugate 1 or IL-15, blood and spleen were subject to immunophenotyping using the Fortessa flow cytometer, DIVA acquisition software and Flowjo analysis software. Graphs were plotted in Prism. […] Both effector and central memory populations proliferate in response to administration of Conjugate 1, an exemplary long acting IL-15 agonist.
NK-cell Granzyme B expression as a function of time was measured following treatment with Conjugate 1 at doses of 0.01 mg/kg, 0.03 mg/kg, 0.1 mg/kg, 0.3 mg/kg, 1 mg/kg, and 1.5 mg/kg. Whole blood was collected from 24 to 240 hours post-dose for immunophenotyping. Once red blood cells were lysed, white blood cells were labeled with viability dye and markers specific for CD45, CD3 and CD49b to identify live NK cells. Cells were then simultaneously fixed and permeabilized for intracellular Granzyme B staining. Stained blood was run on a Fortessa flow cytometer, acquired by DIVA software and analyzed using Flowjo software. […]

[3] = test system: CTLL-2 cells; assay: Potency assay based on STAT5 phosphorylation in CTLL-2 cells; type: cell-based, murine; settings: for EC50 (ng/mL) CTLL-2 pSTAT5: Table 2B
Description: In the phospho-STAT5 assay following receptor binding, downstream cell signaling can then activate Signal Transducer and Activator of Transcription 5 (STAT5) through phosphorylation to promote gene expression to induce cell proliferation. The activation of phosho-STAT5 is measured in CTLL-2 cells, a murine T lymphocyte cell line, using the phospho-STAT5/total STAT5 multiplexed assay (Meso Scale Discovery, MD) in response to sample and reference treatment for ˜10 minutes.
One day prior to the assay, CTLL-2 cells were split into fresh growth medium [RPMI 1640 supplemented with 10% FBS, 10% T-cell culture supplement (catalog #354115, Corning, Inc., Tewksbury, MA), 2 mM L-glutamate, and 1 mM sodium pyruvate]. On the day of assay, cells were pre-incubated in assay medium (RPMI 1640 supplemented with 1% FBS, 2 mM L-glutamate, and 1 mM sodium pyruvate) for at least four hours, and then plated in assay medium in a 96-well plate at 50,000 cells/well. Dilutions of the test article were prepared in an appropriate buffer immediately prior to assay. Stimulation of CTLL-2 cells was initiated by the transfer of 25X test article solutions to triplicate wells containing CTLL-2 cells. Plates were incubated at 37° C., 5% CO2 for 10 minutes, and the reaction was stopped by cell lysis. Detection of phospho-STAT5 and total STAT5 protein levels in cell lysates was performed using the MSD Phospho (Tyr694)/Total STATa,b Whole Cell Lysate Kit (Meso Scale Discovery, MD).

[4] = mice, blood, single dose 0.3 mg/kg

For “IL-15: recombinant human IL-15 from E. coli, SEQ ID NO: 1, non-glycosylated, 12.9 kDa; unconjugated comparator”, the “plasma levels following administration” value ([1]; single i.v. 50 μg/kg) was “rapidly cleared from the plasma”, the “Ki67 and Granzyme B in CD49b cells, spleen” value ([2]; mice, single dose) was “does not” and the “EC50 (ng/mL) CTLL-2 pSTAT5” value [3] was 0.27 ng/mL.
In the case of mono-mPEG-SBA40K-IL-15 [Conjugate 1], the half-life ([1]; single i.v. 100 μg/kg) was “approximately 30 hours”, the “Granzyme B percent positivity in blood NK cells” value ([2]; Balb/c mice, 0.03 and 0.3 mg/kg (Example 18)) was “induced significant increases in NK Granzyme B expression” and the “CD4 T cell numbers and % Ki-67” value ([2]; Balb/c mice, single i.v. 0.03 or 0.3 mg/kg, compared to CD8 and NK cells) was “relatively small increase in numbers and % Ki-67 expression”. The “percent of NK cells positive for Granzyme B expression” value ([2]; mice, 0.01-1.5 mg/kg, 24 to 240 hours (Example 15)) was “increases NK-cell Granzyme B expression”, the “duration of increase in NK cell number” value ([2]; mice, all dose levels) was “at least 96 hours” and the “duration of increase in % Ki67” value ([2]; mice, all dose levels, compared to vehicle) was “at least 120 hours”. The “increase in CD8 Tcm cell numbers” value [2, 4] was 37.9 X, the “increase in CD8 Tem cell numbers” value [2, 4] was 14.5 X and the “increase in CD8 cell numbers” value [2, 4] was 6.4 X. For the same substance, the “duration of increase of NK cells in all maturation sub-populations” value ([2]; mice, i.v., Example 11) was “at least 120 hours”, the “duration of increase in NK cell number” value ([2]; mice, medium and high dose levels) was “at least 144 hours” and the “duration of increase in % Ki67” value ([2]; mice, medium dose ranges (0.1 mg/kg and 0.3 mg/kg)) was “at least 144 hours”. For the same substance, the “increase in CD8 Tcm cell numbers” value ([2]; mice, repeated dosing Q7dx3) was 183 X, the “increase in CD8 Tem cell numbers” value ([2]; mice, repeated dosing Q7dx3) was 73.8 X and the “increase in CD8 cell numbers” value ([2]; mice, repeated dosing Q7dx3) was 35.3 X. For the same substance, the “Ki67 and Granzyme B in CD49b cells, spleen” value ([2]; mice, single dose) was “dose-dependent increase in both Ki67 and Granzyme B”, the “Ki-67 in effector and central memory CD8 T cells, blood” value ([2]; mice, single dose) was “dose-dependent increase in both effector and central memory CD8 T cells” and the “dose levels inducing a significant increase in total CD8 T cells in the blood” value ([2]; mice, single dose) was at least 0.03 mg/kg. The NK cell numbers ([2]; mice, single dose 0.01 to 1.5 mg/kg) was “increase significantly above vehicle control at all dose levels”, the “CD8 and CD8 memory T cell numbers at end of time course” value ([2]; mice, single dose 0.3-1.5 mg/kg) was “did not return to baseline at 240 hours post injection” and the “NKG2D and Granzyme B expression (MFI) by NK cells” value ([2]; mice, single i.v. 0.03, 0.3, 1 mg/kg vs vehicle) was “sustained increase in both NKG2D and Granzyme B”. For the same substance, the “time increased CD8 cell numbers were maintained compared to vehicle” value ([2]; mice, single iv injection) was “at least 240 hours”, the “reduction in potency when compared to IL-15” value ([3]; EC50 CTLL-2 pSTAT5) was “two-fold” and the “EC50 (ng/mL) CTLL-2 pSTAT5” value [3] was 0.62 ng/mL.
